| Compound | melting point [°C] |
| --- | --- |
| COC(=O)C1CN(C(=O)C2=Cc3cc(OC)c(OC)cc3CCC2)CCN1 (configuration not stated) | 103 to 104 |
| c1ccc2c(c1)nc1n2CCC(CN2CCNCC2)S1 (configuration not stated) | 151 to 153 |
| COC(=O)c1cc(-c2ccc(S(C)(=O)=O)cc2)n(-c2ccc(Cl)cc2)n1 | 169 to 171 |
| COC(=O)c1nc(Br)c(F)c(N)c1Cl | 119 to 120 |
| N#CSCSc1sccc1[N+](=O)[O-] | 51 to 53 |
| COc1cccc(C(=O)c2cc3ccccc3[nH]2)c1 | 119 to 121 |
| O=C(O)CCN1CCCCC1=O | 105 to 110 |
| CC(C)(O)CCOc1c(-c2ccc(S(N)(=O)=O)cc2)cnn(-c2ccc(F)c(Cl)c2)c1=O | 59 to 62 |
| COc1ccc(CC(=O)Nc2c(C)c(C)c3c(c2C)C(c2ccc(C(C)C)cc2)CO3)cc1 (configuration not stated) | 166 to 167 |
| COC(=O)c1nc2cc(C(F)(F)F)ccc2c(O)c1C(=O)OC | 210 |
| CCC(=C(c1ccc(O)cc1)c1ccc(O)cc1)c1ccc(OCC(=O)O)c(OC)c1 | 253 to 254 |
| CC(C)(C)c1cc(=S)cc(C(C)(C)C)s1 | 162 |
| O=C1C2C=CC(O2)C(=O)N1c1ccccc1 | 150 to 152 |
| NCCSc1ncccc1C(O)c1ccccc1 (configuration not stated) | 118 to 120 |
| COC(=O)CCc1ccc(N(c2ccc(-c3ccc(N(c4ccc(CCC(=O)OC)cc4)c4cccc5ccccc45)cc3)cc2)c2cccc3ccccc23)cc1 | 117 to 120 |
| COc1cc(/C=C/CO)ccc1OCc1csc(-c2ccccc2)n1 | 71 to 72 |
| Oc1ccc(Cn2cnc3c(-c4ccco4)ncnc32)cc1 | 231 to 233 |
| CS(=O)(=O)Nc1ccc2nc(CCl)ccc2c1 | 160 to 162 |
| CC(C)OC(=O)N[C@H](C(=O)N[C@H](CN)C(C)C)C(C)C | 106 |
| COC(=O)c1c(C(=O)OC)c(-c2ccc(Cl)cc2)n2c1Cc1c(n(C)c3ccccc13)C2 | 264 to 265 |
| CC(C)(C)OC(=O)N1CC(CCl)c2c1cc(O)c1ncccc21 (configuration not stated) | 148 to 149 |
| COc1cc(N)c(Cl)cc1C(=O)NC1C=NN(C)C1 (configuration not stated) | 173 to 175 |
| N#CC(C(=O)O)=C(c1ccc(F)cc1)c1ccc(F)cc1 | 180 to 181 |
| CN1Cc2cccnc2C(N2CC[N+]([O-])(C(=O)Cc3ccncc3)CC2)c2ccc(Cl)cc21 (configuration not stated) | 115 to 118 |
| COc1ccc(CCOc2ccc(C(=O)N/C(=C\c3ccc(OCC(F)F)cc3)C(=O)NCCO)cc2)cc1 | 172 to 174 |
| Cc1ccc(NC2CCOC2=O)c(C(=O)O)c1 (configuration not stated) | 199 to 200 |

| Compound | melting point [°C] |
| --- | --- |
| O=C(N1CCC(n2ccc3ccccc32)CC1)C(F)(F)F | 130 to 132 |
| CC(C)c1ccccc1NC#N | 75 to 77 |
| Nc1nc(N)nc(C2CCN(C(=O)c3ccccc3)CC2)n1 | 246 to 248 |
| CC(=O)N1c2cscc2C(=O)N(C)c2ccccc21 | 197 to 199 |
| CCOC(=O)c1ccc(NC2(C#N)CCCCC2)cc1 | 101 to 102 |
| CC(C)NC(=O)c1nc(-c2ccccc2)c(-c2ccc(=O)[nH]n2)s1 | > 250 |
| CNC(=O)COCC(=O)O | 33 to 33.5 |
| CC(C)(C)c1cc(CCc2ccccc2NC(=O)NCc2ccncc2)cc(C(C)(C)C)c1O | 214 to 215 |
| OC1Cc2ccccc2Sc2cc(F)c(F)cc21 (configuration not stated) | 98 to 100 |
| CC(C)(C)c1ccc(C(=O)Nc2cn3cc(F)ccc3n2)cc1 | 250 to 251 |
| Cc1nc(-c2ccc(C(=O)N3Cc4cccnc4Nc4ccccc43)c(Cl)c2)n[nH]1 | 196 to 198 |
| NC(=O)c1sc2nccc(N3CCCN(c4ccc(OCc5ccccc5)cc4)CC3)c2c1N | 211 to 213 |
| O=C(c1ccc(Cl)c(Cl)c1)N1C(=O)N2CCCC2(Cc2ccc(Br)cc2)C1=O (configuration not stated) | 158 |
| CCCCCCCCCCCCCCOCC(CC#N)(CC#N)COCCCCCCCCCCCCCC | 33 to 35 |
| COCc1c2c(c(COC)n1-c1ccccc1)C(C)(C(N)=O)CC2(C)C (configuration not stated) | 168 to 170 |
| CCOC(=O)c1cnc2c(S)cccn2c1=O | 151 to 152 |
| O=C(OCCN1CCOCC1)c1ccc(-c2n[nH]c3c2Cc2ccccc2-3)cc1 | 168 to 172 |
| CCOC(=O)c1oc(-c2ccc(Cl)cc2)cc(=O)c1Br | 146 to 149 |
| CN(C)C1(c2ccc(F)cc2)CCC2(CC1)NCCc1c2[nH]c2ccccc12 (configuration not stated) | 249 to 250 |
| CCCCOC(=O)CNC(=O)c1ncccc1OC | 60 to 62 |
| COc1ccc(C(C#Cc2cnc(N)nc2)Cc2nc(C)co2)cc1OC1CCCC1 (racemic) | 103 to 105 |
| O=C(C=Cc1ccc(-c2ccc(O)c(Cl)c2)cc1)NO | 172 to 175 |
| CC(=O)Nc1ccc(F)cc1C | 131 to 132 |
| CC(C)N(CCN1C(=O)/C(=N/NC(N)=O)c2ccccc21)Cc1ccccc1 | 193 to 194 |
| COc1ccc(-c2cncc(OC3SCC(OC(C)=O)C(OC(C)=O)C3OC(C)=O)c2)c(Cl)c1 (configuration not stated) | 126 |
| CCOc1c(C(N)=O)n(-c2ccccc2)c2ccc(OC)cc12 | 143 to 144 |

| Compound | melting point [°C] |
| --- | --- |
| CCOCc1nc2c(N)nc3cccnc3c2n1CC1(O)CCC1 | 162 to 163 |
| CCC(=O)Nc1cccc(-c2c(C)c(NC(=O)CC(C)(C)C)c(C)c3c2OCC3c2ccc(C(C)C)cc2)c1 (configuration not stated) | 237 to 239 |
| CSCC(C)(C)C(=O)N(C)c1cnc(-c2cncc(F)c2)s1 | 98 to 102 |
| O=[N+]([O-])c1ccc2c(c1)C(c1ccccc1Cl)=NCc1nc(CO)cn1-2 | 173 to 174 |
| Cc1c(Cl)cccc1S(=O)(=O)Nc1nc(C(C)(C)C)cs1 | 178 |
| CNC(=O)N(O)Cc1ccc(OCc2ccccc2)cc1 | 150 to 153 |
| CC(=O)OC1CSC(Oc2cccc3conc23)C(OC(C)=O)C1OC(C)=O (configuration not stated) | 157 |
| N#Cc1cc(C(=O)NNC(=O)c2occc2-c2cccc(Oc3ccccc3)c2)ccc1O | 227 to 228 |
| COc1ccc(-c2ccc3c(n2)[nH]c2ccccc23)cc1 | > 220 |
| CN(C)C(=O)N(N)c1ccc(F)c(Cl)c1 | 88 to 89 |
| CO/C=C1/C(=O)NC(=O)c2ccc(I)cc21 | 120 to 121 |
| CCCCc1ccc(OC)c(-c2csc(NC(=O)c3ccc(C(=O)N4CCC(N5CCC[C@H]5CO)CC4)cc3)n2)c1 | 199 |
| CC(=O)OC(CN1C(=O)N(C(C)=O)C2(CC(C)(C)N(C)C(C)(C)C2)C1=O)CN1C(=O)N(C(C)=O)C2(CC(C)(C)N(C)C(C)(C)C2)C1=O | 105 to 108 |
| COc1ccc(F)cc1C(C)(C)CC(O)(C(=O)Nc1ccccc1)C(F)(F)F (configuration not stated) | 83 to 85 |
| COc1ccc(-c2c(SCc3ccncc3)oc3cc(OCc4ccccc4)ccc3c2=O)cc1 | 170 |
| N=C(N)c1sccc1-c1ccc(CN2CCSC2)cc1 | 162 to 164 |
| CCc1c(C(=O)N(O)O)cc(C(C)(C)C)c(O)c1C(C)(C)C | 147 to 150 |
| O=C(O)/C=C/c1ccc(N2CCC3(CC2)OCCO3)cc1 | 221 to 222 |
| COc1ccc(-c2nc(CCl)nc3sc(C)c(C)c23)cc1OC | 117 to 118 |
| CC(N)=CC(=O)c1ccc(Cl)cc1 | 126 to 130 |
| Cc1oc2cc(C3CC(=O)OC(=O)C3)ccc2c1C | 145 to 147 |
| O=c1c(-c2cccc(Cl)c2)coc2c(O)c(O)ccc12 | 258 |
| N#CNC(=Nc1ccncc1)NCCCCCOc1ccccc1 | 188 to 189 |
| CNS(=O)(=O)c1cccc(-c2cnc3[nH]cc(C(=O)C(C)(C)C)c3n2)c1 | 245 to 247 |
| CCOC(=O)c1c(C(F)(F)F)nn(C)c1N | 120 to 121 |
| C=Cc1ccc(C(C#N)C#N)cc1 | 40 to 42 |

| Compound | melting point [°C] |
| --- | --- |
| Nc1nc2ccc(Cl)cc2nc1N | 290 |
| COC(=O)c1ccc(NN)c(Cl)c1 | 120 |
| COc1ccc(C=CC(=O)C=Cc2ccccc2)cc1 | 85 to 89 |
| COC(=O)c1ccc(OC)cc1S(=O)(=O)NC(=O)Nc1nc(C)nc(OC)n1 | 183 to 186 |
| O=C1NC(=O)C(c2c[nH]c3ccccc23)=C1c1c[nH]c2ccccc12 | 234 |
| O=C(N=c1sc2cc(OC(F)(F)F)ccc2n1CCCO)C(F)(F)F | 144 |
| COc1cc2c(cc1F)CCN=C2C1(c2ccc(Cl)cc2Cl)CC1 | 151 to 154 |
| O=c1ccn(CCOCc2ccccc2)c(C(O)c2ccccc2)c1OCc1ccccc1 (configuration not stated) | 154 to 155 |
| COC(=O)CCCCCCc1ncsc1C(=O)O | 113 to 114 |
| Fc1ccc(CN(C(=S)Nc2ccccc2)C2CCCC2)cc1 | 135 |
| Cc1cc(-c2cc(C(F)(F)F)n3ncc(C(=O)Nc4cccc(S(=O)(=O)N5CCN(C)CC5)c4)c3n2)ccc1C(F)(F)F | 199 |
| CC(=O)Nc1cccc(OCc2cc([N+](=O)[O-])ccc2C(=O)O)c1 | 225 |
| CC(C)(C)C(NC(=O)c1ccc(I)cc1)NC(=NC#N)Nc1cccnc1 (configuration not stated) | 180 to 183 |
| CCNC(=S)NS(=O)(=O)c1cc2c(cc1OC)OC(C)(C)C(NC(=O)c1cc(F)ccc1OC)C2 (configuration not stated) | 211 |
| CCn1cnc2cc(C(F)(F)F)c(Cl)c(N)c21 | 192 to 193 |
| COc1ccc2cc(C=O)oc2c1 | 75 to 77 |
| CC1CN(c2c(F)cc3c(=O)c(C(=O)O)cn(C4CC4)c3c2F)CC1NC(=O)OC(C)(C)C (configuration not stated) | 230 to 231 |
| CCOCc1nc2c(N)nc3cc(-c4ccc(-c5ccc6c(c5)nc(N)c5nc(COCC)n(CC(C)(C)O)c56)cc4)ccc3c2n1CC(C)(C)O | 325 to 328 |
| COCCN1CCN(c2ccc(N3C[C@H](CNC(C)=O)OC3=O)cc2F)CC1 | 144 to 146 |
| COc1ccc2c(c1)CC(C)C2=O (configuration not stated) | 73 to 76 |
| CC(=O)NC[C@H]1CN(c2cc(F)c(N3CCC(Cc4noc(-c5ccccc5)n4)CC3)c(F)c2)C(=O)O1 | 152 to 154 |
| CC(C)(C)C(=O)NCCc1ccc(O)c(O)c1 | 144 to 146 |
| COc1cc(CCC(=O)O)ccc1OCCCc1cn(-c2ccc(C(F)(F)F)cn2)nc1C(C)C | 118 to 119 |
| COc1c(N2CCC(NC3CC3)C(C)C2)c(F)cc2c(=O)c(C(=O)O)cn(C3CC3)c12 (configuration not stated) | 182 to 184 |
